{"source": "patent US8192962B2", "about": "“Processes for detecting toxic substances” (Daikin Industries, Ltd., priority 2001, dated 2012)", "tested_on": "Stress protein genes", "assay": "DNA chip mRNA expression in yeast, stress protein genes (Table 6)", "format": "cell-based, Saccharomyces cerevisiae S288C", "experimental": "Yeast (Saccharomyces cerevisiae S288C (α SUC2mal mel gap2 CUP1)) were incubated at 25° C. on YPD medium (yeast extract 1%, polypepton 2%, glucose 2%). One of toxic chemical substances was added to the cells at logarithmic growth phase, and the cells were further incubated for two hours. Cells were cultured without any chemical substance in the same condition, and were used as control. Concentrations of the chemical substances were defined to inhibit the growth of the yeast but not lead to death.\nAfter completion of the incubation, the culture was centrifuged to collect the cells. To the cells, sodium acetate buffer (50 mM sodium acetate, 10 mM EDTA, 1% SDS) was added, and the mixture was shaken at 65° C. for five minutes, followed by returning to room temperature, and obtaining the supernatant, of which the procedures were repeated two times. To the supernatant, ½ amount of a solution of phenol/chloroform was added, and the mixture was centrifuged to give a supernatant, which was added with an equal amount of chloroform, and the mixture was centrifuged to give a supernatant. To the supernatant, an equal amount of isopropanol containing 0.3 M sodium acetate was added, and the mixture was allowed to stand at room temperature for 30 minutes, after which the mixture was centrifuged to give a sediment of the whole RNAs. Seventy % ethanol was added to the sediment, and the mixture was again centrifuged to give a sediment, which was then dried and dissolved in water. mRNA was isolated from the whole RNAs as followings. In view of the fact that a poly A chain is attached to the 3′ terminus of mRNA, a polynucleotide having a poly T structure which was immobilized on the surface of latex beads was used to trap the mRNA, and then the mRNA was washed and eluted with spine column (Oligotex-dT30<Super>mRNA Purification Kit, Takara). Reverse transcription of the mRNA was conducted with a reverse transcriptase (Super Script II Reverse Transcriptase; catalogue No. 18064-014, GibcoBRL) using fluorescence-labeled nucleotides to give cDNAs that were introduced with Cy3-dUTP or Cy5-dUTP during the reverse transcription.\nThe labeled cDNAs were dissolved in TE buffer (10mM Tris-HCl/1 mM EDTA, pH8.0), and the solution was dropped on the DNA chip containing the whole genes of yeast (DNA Chip Research Inc. Japan) so that the cDNAs were hybridized on the DNA chip at 65° C. for over 12 hours. The fluoresces intensity of the DNA chip was read with a scanner, and the ratio relative to the fluorescence intensity resulting from the absence of chemical substance was estimated as the following, which is shown in Tables 1 to 9: […]", "data": [{"compound": "Cl[C@H]1[C@H](Cl)[C@@H](Cl)[C@@H](Cl)[C@H](Cl)[C@H]1Cl", "note": "[(7), γ-hexachlorocyclohexane]", "values": [{"measurement": "The level of expressed mRNA in the presence of chemical substance/The level of expressed mRNA in the absence of chemical substance", "setting": "yeast gene YIL033C", "value": 1.1}, {"measurement": "The level of expressed mRNA in the presence of chemical substance/The level of expressed mRNA in the absence of chemical substance", "setting": "yeast gene YIR037W", "value": 1.8}, {"measurement": "The level of expressed mRNA in the presence of chemical substance/The level of expressed mRNA in the absence of chemical substance", "setting": "yeast gene YIR038C", "value": 2.0}, {"measurement": "The level of expressed mRNA in the presence of chemical substance/The level of expressed mRNA in the absence of chemical substance", "setting": "yeast gene YJL128C", "value": 1.8}, {"measurement": "The level of expressed mRNA in the presence of chemical substance/The level of expressed mRNA in the absence of chemical substance", "setting": "yeast gene YJL158C", "value": 0.4}, {"measurement": "The level of expressed mRNA in the presence of chemical substance/The level of expressed mRNA in the absence of chemical substance", "setting": "yeast gene YJL159W", "value": 0.9}, {"measurement": "The level of expressed mRNA in the presence of chemical substance/The level of expressed mRNA in the absence of chemical substance", "setting": "yeast gene YJL165C", "value": 0.8}, {"measurement": "The level of expressed mRNA in the presence of chemical substance/The level of expressed mRNA in the absence of chemical substance", "setting": "yeast gene YJR045C", "value": 1.0}, {"measurement": "The level of expressed mRNA in the presence of chemical substance/The level of expressed mRNA in the absence of chemical substance", "setting": "yeast gene YJR090C", "value": 0.8}, {"measurement": "The level of expressed mRNA in the presence of chemical substance/The level of expressed mRNA in the absence of chemical substance", "setting": "yeast gene YKL161C", "value": 2.0}, {"measurement": "The level of expressed mRNA in the presence of chemical substance/The level of expressed mRNA in the absence of chemical substance", "setting": "yeast gene YKL163W", "value": 0.9}, {"measurement": "The level of expressed mRNA in the presence of chemical substance/The level of expressed mRNA in the absence of chemical substance", "setting": "yeast gene YKL164C", "value": 0.8}, {"measurement": "The level of expressed mRNA in the presence of chemical substance/The level of expressed mRNA in the absence of chemical substance", "setting": "yeast gene YKL210W", "value": 1.0}, {"measurement": "The level of expressed mRNA in the presence of chemical substance/The level of expressed mRNA in the absence of chemical substance", "setting": "yeast gene YKR053C", "value": 1.7}, {"measurement": "The level of expressed mRNA in the presence of chemical substance/The level of expressed mRNA in the absence of chemical substance", "setting": "yeast gene YLL024C", "value": 1.1}, {"measurement": "The level of expressed mRNA in the presence of chemical substance/The level of expressed mRNA in the absence of chemical substance", "setting": "yeast gene YLL026W", "value": 2.9}, {"measurement": "The level of expressed mRNA in the presence of chemical substance/The level of expressed mRNA in the absence of chemical substance", "setting": "yeast gene YLL039C", "value": 1.1}, {"measurement": "The level of expressed mRNA in the presence of chemical substance/The level of expressed mRNA in the absence of chemical substance", "setting": "yeast gene YLL060C", "value": 2.0}, {"measurement": "The level of expressed mRNA in the presence of chemical substance/The level of expressed mRNA in the absence of chemical substance", "setting": "yeast gene YLR006C", "value": 1.1}, {"measurement": "The level of expressed mRNA in the presence of chemical substance/The level of expressed mRNA in the absence of chemical substance", "setting": "yeast gene YLR109W", "value": 2.6}, {"measurement": "The level of expressed mRNA in the presence of chemical substance/The level of expressed mRNA in the absence of chemical substance", "setting": "yeast gene YLR259C", "value": 1.8}, {"measurement": "The level of expressed mRNA in the presence of chemical substance/The level of expressed mRNA in the absence of chemical substance", "setting": "yeast gene YML007W", "value": 1.1}, {"measurement": "The level of expressed mRNA in the presence of chemical substance/The level of expressed mRNA in the absence of chemical substance", "setting": "yeast gene YML070W", "value": 3.1}, {"measurement": "The level of expressed mRNA in the presence of chemical substance/The level of expressed mRNA in the absence of chemical substance", "setting": "yeast gene YMR021C", "value": 2.5}, {"measurement": "The level of expressed mRNA in the presence of chemical substance/The level of expressed mRNA in the absence of chemical substance", "setting": "yeast gene YMR173W", "value": 2.4}, {"measurement": "The level of expressed mRNA in the presence of chemical substance/The level of expressed mRNA in the absence of chemical substance", "setting": "yeast gene YMR186W", "value": 1.2}, {"measurement": "The level of expressed mRNA in the presence of chemical substance/The level of expressed mRNA in the absence of chemical substance", "setting": "yeast gene YNL064C", "value": 0.6}, {"measurement": "The level of expressed mRNA in the presence of chemical substance/The level of expressed mRNA in the absence of chemical substance", "setting": "yeast gene YNL160W", "value": 2.4}, {"measurement": "The level of expressed mRNA in the presence of chemical substance/The level of expressed mRNA in the absence of chemical substance", "setting": "yeast gene YNL241C", "value": 3.2}, {"measurement": "The level of expressed mRNA in the presence of chemical substance/The level of expressed mRNA in the absence of chemical substance", "setting": "yeast gene YNR076W", "value": 1.2}, {"measurement": "The level of expressed mRNA in the presence of chemical substance/The level of expressed mRNA in the absence of chemical substance", "setting": "yeast gene YOL064C", "value": 1.2}, {"measurement": "The level of expressed mRNA in the presence of chemical substance/The level of expressed mRNA in the absence of chemical substance", "setting": "yeast gene YOL161C", "value": 0.9}, {"measurement": "The level of expressed mRNA in the presence of chemical substance/The level of expressed mRNA in the absence of chemical substance", "setting": "yeast gene YOR008C", "value": 0.8}, {"measurement": "The level of expressed mRNA in the presence of chemical substance/The level of expressed mRNA in the absence of chemical substance", "setting": "yeast gene YOR009W", "value": 0.6}, {"measurement": "The level of expressed mRNA in the presence of chemical substance/The level of expressed mRNA in the absence of chemical substance", "setting": "yeast gene YOR010C", "value": 0.4}, {"measurement": "The level of expressed mRNA in the presence of chemical substance/The level of expressed mRNA in the absence of chemical substance", "setting": "yeast gene YOR027W", "value": 1.3}, {"measurement": "The level of expressed mRNA in the presence of chemical substance/The level of expressed mRNA in the absence of chemical substance", "setting": "yeast gene YOR208W", "value": 1.1}, {"measurement": "The level of expressed mRNA in the presence of chemical substance/The level of expressed mRNA in the absence of chemical substance", "setting": "yeast gene YPL059W", "value": 0.7}, {"measurement": "The level of expressed mRNA in the presence of chemical substance/The level of expressed mRNA in the absence of chemical substance", "setting": "yeast gene YPL106C", "value": 1.1}, {"measurement": "The level of expressed mRNA in the presence of chemical substance/The level of expressed mRNA in the absence of chemical substance", "setting": "yeast gene YPL140C", "value": 1.4}, {"measurement": "The level of expressed mRNA in the presence of chemical substance/The level of expressed mRNA in the absence of chemical substance", "setting": "yeast gene YPL194W", "value": 1.5}, {"measurement": "The level of expressed mRNA in the presence of chemical substance/The level of expressed mRNA in the absence of chemical substance", "setting": "yeast gene YPL223C", "value": 1.1}, {"measurement": "The level of expressed mRNA in the presence of chemical substance/The level of expressed mRNA in the absence of chemical substance", "setting": "yeast gene YPL240C", "value": 1.4}, {"measurement": "The level of expressed mRNA in the presence of chemical substance/The level of expressed mRNA in the absence of chemical substance", "setting": "yeast gene YPR005C", "value": 1.2}, {"measurement": "The level of expressed mRNA in the presence of chemical substance/The level of expressed mRNA in the absence of chemical substance", "setting": "yeast gene YPR026W", "value": 1.3}]}]}
